Laboratory results reported in patent US20040019060A1, “Sigma receptor ligands and their medical uses” (priority 2000, published 2004).
Like-named read-outs stand apart in the source and are kept apart here.

Assays:
endothelial cells = assay: Endothelial cell proliferation assay (cell phosphatase activity); type: cell-based, human; conditions: for Rescue from Rimcazole inhibition of proliferation: 4 μM agonist added together with 4 μM Rimcazole; for Stimulatory activity on cell proliferation: agonist ligands alone; for Agonists: stimulation: increase in cell number relative to controls on day 4; for IC50: concentration of drug required to inhibit survival and/or proliferation by 50%, read-out: Antagonists: IC50
Protocol: HUVECS (human umbilical vein endothelial cells) obtained from TCS Biologicals were grown in TCS Biologicals Large Vessel Endothelial Cell Basal Medium (ZHM-2951) with supplement (ZHS-8945). This contains heparin, hydrocortisone, human EGF, human bFGF (concentrations not disclosed by the Company) with added 2% FCS, pH 7.4.
(§1) HMEC-1 (immortalised human microvascular endothelial cells) obtained from Dr Colin Porter, Chester Beatty Laboratories were grown in TCS Biologicals Microvascular Endothelial Cell Basal Medium (ZHM-2946) with supplement (ZHS-8947). This contains heparin, hydrocortisone, human EGF, human bFGF, dibutyryl cyclic AMP (concentrations not disclosed by the Company) with added 5% FCS, pH 7.4.
as §1, with “HDMECS (human dermal” for “HMEC-1 (immortalised human”, “TCS Biologicals” for “Dr Colin Porter, Chester Beatty Laboratories”
The cells were seeded at 2×10^4 ml in 96 well microtitre plates on day 0, and sigma ligands were added in fresh medium on day 1. […] PCS at the concentrations indicated was present throughout the assay. Each concentration of drug was assayed in triplicate, and the vehicle concentration was kept constant.
Viable cells present at the end of the assay were estimated by determining phosphatase activity as follows: 100Xl of paranitrophenylphosphate (Sigma) at 3 mg/ml in phosphate buffer pH 5.5 containing 0.1% Triton X100 was added to wells and incubated for 2hr at 37° C. The reaction was stopped with 1N NaOH. Released paranitrophenol, indicative of attached cell number, was measured by reading the absorbance at 405 nm in a Titertek multiscan. […] The 100% value is the mean absorbance of control wells treated with vehicle alone; the 0% value is that of wells containing medium only.

[1] = tested on: Human endothelial cells co-cultured with human "feeder" fibroblasts; assay: In vitro angiogenesis assay (pseudocapillary formation, anti-CD31 staining); type: cell-based
Protocol: Human endothelial cells co-cultured with human “feeder” fibroblasts on a fibrin matrix in 24 well plates were incubated with ligands at different concentrations. The ligands were added on days 0, 4, 7 and 9 and the experiment terminated on day 11. On each plate, 2 wells served as untreated controls, and 2 received suramin at […] as a standard angiogenesis inhibitor. Each concentration of ligand was assayed in triplicate. On day 11, the wells were washed, and the endothelial cells fixed and stained with anti-CD31 (PECAM-1) antibody and visualised with alkaline phosphatase conjugated second antibody. The cultures were scanned for image analysis and quantitation using a DataCell image analysis system and ImagePro software. Angiogenesis was expressed as the area and/or perimeter of “pseudocapillaries” formed in the gel by the endothelial cells.

[2] = tested on: Human adult dermal microvascular endothelial cells; assay: MTS cell viability/proliferation assay, microvascular endothelial cells
sigma-1 sites = sigma-1 sites (Homo sapiens, UniProt Q99720); conditions: cited from earlier work; for affinity for sigma-1 versus sigma-2 sites / selectivity for sigma sites compared to other receptors: Matsumoto et al 1995; for selectivity for sigma sites compared to other receptors: vs opiate, phencyclidine, muscarinic, dopamine, alpha-1-, alpha-2-, beta-adrenoceptor, 5HT-1, 5-HT-2
[3] = Pharmacokinetics in mice (LCMS of plasma, liver, spleen); type: in vivo, Balb/C mice; conditions: not shown
Protocol: Prior to undertaking any in vivo experiments with Rimcazole to study effects on tumour growth and angiogenesis, it was necessary to determine its pharmacokinetics in order that doses in the active range could be administered. Rimcazole (dissolved in water) was administered at 40 mg/kg i.p to Balb/C mice. Heparinised blood samples were taken at 5, 15 and 30 minutes, 1,2,4,6, and 24 hours and plasma separated. Tissue samples were also taken at some time points for analysis. Rimcazole samples were initially analysed by LCMS.
Column: Supelco 50×4.6 mm ABZ+ with 5 μ packing.
Mobile phase: A=HPLC grade methanol, B=0.1% formic acid in water.
Full scan mode: mass range analysed 50 to 850 amu.
MSMS mode: filtered ions were 322 (Rimcazole), 338 (Rimcazole+oxygen), and 514 (glucuronide of 338 metabolite).

sponge angiogenesis = assay: Rat sponge angiogenesis model (125I albumin vascular volume); type: in vivo, CBH/cbi rats
Protocol: In order to study neoangiogenesis in the absence of tumours, sterile polyether sponges were implanted into animals. This technique, developed in Cambridge, has been widely used to study angiogenesis. We have employed a triple radiotracer technique to study different aspects of the angiogenic process.
CBH/cbi rats were implanted s.c. with sterile 13 mm diameter sponges as above. They were treated i.p. with Rimcazole (30 mg/kg/day) for 14 days from day 0. Five minutes before termination, they were injected with ^125I labelled rat albumin (a macromolecule which, in the short term remains intravascular). The amount of radioiodine in the sponges is an index of vascular volume.

[4] = tested on: Human mammary carcinoma (MDA MB 468) cells; assay: MTS cell viability/proliferation assay, mammary carcinoma cells; type: cell-based; conditions: 10 micromolar, low passage cells, FIG. 9
Protocol: Human mammary carcinoma (MDA MB 468) cells were obtained from TCC, Manassas, Va., USA; catalogue number HTB-132; cells were grown in accordance with the manufacturer's instructions.
(§2) Cell density was checked microscopically at time zero.

[5] = tested on: human adult dermal fibroblasts; assay: MTS cell viability/proliferation assay, dermal fibroblasts; type: cell-based
Description: (§3) (Tissue in all cases was from healthy donors). […] Primary cell types included:
as §2

[6] = tested on: Human mammary epithelial cells; assay: MTS cell viability/proliferation assay, mammary epithelial cells; type: cell-based; conditions: 10 micromolar, up to 48 hours, FIG. 9
Description: as §3
Human mammary epithelial cells (catalogue number CC-2551; stain positive for cytokeratins 14, 18 and 19).
as §2

sigma-1 sites, sequence (Q99720 whole entry): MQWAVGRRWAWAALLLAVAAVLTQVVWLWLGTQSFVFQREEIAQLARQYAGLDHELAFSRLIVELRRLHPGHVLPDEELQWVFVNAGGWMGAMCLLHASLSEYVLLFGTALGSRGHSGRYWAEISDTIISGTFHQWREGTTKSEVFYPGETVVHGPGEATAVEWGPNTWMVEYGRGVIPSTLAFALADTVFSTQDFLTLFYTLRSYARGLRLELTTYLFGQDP

SMILES: C=CCN1CCC2(C)c3cc(O)ccc3CC1C2C (single isomer, unassigned; (+)) [(+)-SKF-10047, (+)-N-allyl normetazocine]
- Rescue from Rimcazole inhibition of proliferation (endothelial cells; FIG. 3): slight increase in survival
- Rescue from Rimcazole inhibition: numbers of endothelial cells (endothelial cells; 10 μM agonist added together with 4 μM Rimcazole, FIG. 3): the same as in control untreated cultures
- Stimulatory activity on cell proliferation (endothelial cells): moderate stimulatory activity
- Agonists: stimulation (endothelial cells; at 100 μM): 110% at 100 μM

SMILES: CC(C)=CCN1CCC2(C)c3cc(O)ccc3CC1C2C (single isomer, unassigned; (+)) [(+)pentazocine, (+)-pentazocine]
- Rescue from Rimcazole inhibition of proliferation (endothelial cells; FIG. 3): slight increase in survival
- Stimulatory activity on cell proliferation (endothelial cells): moderate stimulatory activity
- Agonists: stimulation (endothelial cells; at 4 μM): 120% at 4 μM
- Rescue of in vitro angiogenesis inhibition by 4 μM Rimcazole ([1]; equimolar concentration co-incubated, FIG. 5c): can be prevented
- Prevention of cytotoxic effect of IPAG and rimcazole ([2]; 10 micromolar co-administered with 10 micromolar IPAG or rimcazole, FIG. 11): completely prevented
- Cell proliferation rate on co-administration with rimcazole and IPAG ([2]; co-administration, FIG. 11): increased cell proliferation rates above control values

SMILES: CN(C)CCN(C)CCc1ccc(Cl)c(Cl)c1 [BD1047, N(−)[2-(3,4-dichlorophenyl)ethyl]-N-methyl-2-(dimethylamino)ethylamine]
- IC50 (endothelial cells): 74 µM
- affinity for sigma-1 versus sigma-2 sites (sigma-1 sites): preferential affinities for sigma-1 compared to sigma-2
- selectivity for sigma sites compared to other receptors (sigma-1 sites): marked selectivity

SMILES: CN1CCN(CCc2ccc(Cl)c(Cl)c2)CC1 [BD1063, 1(−)[2-(3,4-dichlorophenyl)ethyl]-4-methylpiperazine]
- IC50 (endothelial cells; Homo sapiens, Endothelial cell): 71 µM
- affinity for sigma-1 versus sigma-2 sites (sigma-1 sites): preferential affinities for sigma-1 compared to sigma-2
- selectivity for sigma sites compared to other receptors (sigma-1 sites): marked selectivity

SMILES: N=C(Nc1ccc(I)cc1)NC1C2CC3CC(C2)CC1C3 (stereo not shown) [IPAG, 1-(4-iodophenyl)-3-(2-adamantyl)guanidine]
- IC50 (endothelial cells; Homo sapiens, Endothelial cell): 11 µM
- Inhibition of endothelial cell proliferation compared with Rimcazole (endothelial cells; not shown): as effective as Rimcazole
- Inhibition of pseudocapillary formation (in vitro angiogenesis) ([1]; FIG. 4, 5a, 5b angiogenesis area): very effective in inhibiting
- Pharmacokinetics compared with Rimcazole [3]: similarly favourable PK
- Vascular volume of normal organs (liver and kidney) (sponge angiogenesis; 30 mg/kg/day for 14 days): unaffected
- Neoangiogenesis in sponges (vascular volume, radiolabelled albumin) (sponge angiogenesis; 30 mg/kg/day for 14 days after implantation, FIG. 7b): reduced
- Cell killing (MTS viability) [4]: no surviving cells remained after 24 hours
- Survival and proliferation (MTS) ([5]; 10 micromolar, up to 48 hours, FIG. 9): continued to proliferate vigorously
- Tolerance of fibroblasts over a range of concentrations (MTS) ([5]; 100 micromolar to 1 nanomolar, FIG. 10): slightly less tolerant of high concentrations
- Survival and proliferation (MTS) [6]: continued to proliferate vigorously
- Ki (sigma-1 sites; Whittemore et al 1997, read-out: inhibition constant for sigma-1 sites): ~0.0028 µM
- cytotoxicity at 10 µM ([2]; Homo sapiens, Endothelial cell, read-out: Reduction in viable cell numbers compared to baseline values): 60 to 80%
